Reference: the supplement of paper PMC8612539
Values after ≈ are worked out from the molar mass of the structure shown.

What was measured:
Pasteurella multocida = test: minimum inhibitory concentration (MIC)
Method: (§1)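 Broth microdilution MIC (Sensititre BOPO7F bovine plate, CLSI methods) of 19 antimicrobials against field isolates of P. multocida, M. haemolytica, H. somni (deep nasopharyngeal swabs) and E. coli, Enterococcus spp. (rectal swabs) from weaned dairy heifers. Incubation 16-24 h at 35 C. MIC is the lowest concentration preventing visible growth. Values with <= or > lie at the tested range limits. Trimethoprim-sulfamethoxazole is given as the trimethoprim component of a 1:19 mixture.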

Enterococcus spp. = test: minimum inhibitory concentration (MIC)
Method: as §1

CC1(C)S[C@@H]2[C@H](NC(=O)Cc3ccccc3)C(=O)N2[C@H]1C(=O)O [Penicillin]
minimum inhibitory concentration [µg/mL]
Details	Enterococcus spp.	Pasteurella multocida
isolate (source animal id): 2	≤ 0.12	–
isolate (source animal id): 10	–	0.25 (≈ 0.748 µM)
isolate (source animal id): 11	–	0.25 (≈ 0.748 µM)
isolate (source animal id): 12	–	0.25 (≈ 0.748 µM)
isolate (source animal id): 19	–	0.25 (≈ 0.748 µM)
isolate (source animal id): 23	–	≤ 0.12
isolate (source animal id): 26	–	0.25 (≈ 0.748 µM)
isolate (source animal id): 35	2 (≈ 5.98 µM)	–
isolate (source animal id): 42	2 (≈ 5.98 µM)	–
isolate (source animal id): 44	2 (≈ 5.98 µM)	–
isolate (source animal id): 79	2 (≈ 5.98 µM)	–
isolate (source animal id): 88	≤ 0.12	–
isolate (source animal id): 91	≤ 0.12	–
isolate (source animal id): 92	0.5 (≈ 1.5 µM)	–
isolate (source animal id): 98	–	≤ 0.12
isolate (source animal id): 104	–	≤ 0.12
isolate (source animal id): 111	≤ 0.12	–
isolate (source animal id): 115	–	≤ 0.12
isolate (source animal id): 117	–	0.25 (≈ 0.748 µM)
isolate (source animal id): 118	–	≤ 0.12
isolate (source animal id): 121	–	0.25 (≈ 0.748 µM)
isolate (source animal id): 122	2 (≈ 5.98 µM)	–
isolate (source animal id): 123	1 (≈ 2.99 µM)	–
isolate (source animal id): 124	–	0.25 (≈ 0.748 µM)
isolate (source animal id): 125	–	0.25 (≈ 0.748 µM)
isolate (source animal id): 128	–	≤ 0.12
isolate (source animal id): 131	–	0.25 (≈ 0.748 µM)
isolate (source animal id): 133	1 (≈ 2.99 µM)	–
isolate (source animal id): 135	–	0.25 (≈ 0.748 µM)
isolate (source animal id): 136	–	0.25 (≈ 0.748 µM)
isolate (source animal id): 140	–	0.25 (≈ 0.748 µM)
isolate (source animal id): 144	–	≤ 0.12
isolate (source animal id): 146	–	≤ 0.12
isolate (source animal id): 150	–	≤ 0.12
isolate (source animal id): 151	–	≤ 0.12
isolate (source animal id): 153	–	≤ 0.12
isolate (source animal id): 155	–	0.25 (≈ 0.748 µM)
isolate (source animal id): 157	–	≤ 0.12
isolate (source animal id): 158	2 (≈ 5.98 µM)	–
isolate (source animal id): 160	–	≤ 0.12
isolate (source animal id): 164	–	≤ 0.12
isolate (source animal id): 165	–	≤ 0.12
isolate (source animal id): 167	–	≤ 0.12
isolate (source animal id): 168	4 (≈ 12 µM)	0.25 (≈ 0.748 µM)
isolate (source animal id): 169	4 (≈ 12 µM)	≤ 0.12
isolate (source animal id): 170	–	> 8
isolate (source animal id): 171	1 (≈ 2.99 µM)	≤ 0.12
isolate (source animal id): 172	–	≤ 0.12
isolate (source animal id): 173	–	0.25 (≈ 0.748 µM)
isolate (source animal id): 174	–	≤ 0.12
isolate (source animal id): 175	4 (≈ 12 µM)	≤ 0.12
isolate (source animal id): 176	–	≤ 0.12
isolate (source animal id): 177	2 (≈ 5.98 µM)	≤ 0.12
isolate (source animal id): 178	–	≤ 0.12
isolate (source animal id): 179	–	≤ 0.12
isolate (source animal id): 181	4 (≈ 12 µM)	–
isolate (source animal id): 182	4 (≈ 12 µM)	≤ 0.12
isolate (source animal id): 183	2 (≈ 5.98 µM)	–
isolate (source animal id): 187	4 (≈ 12 µM)	–
isolate (source animal id): 190	4 (≈ 12 µM)	–
isolate (source animal id): 192	–	≤ 0.12
isolate (source animal id): 193	–	≤ 0.12
isolate (source animal id): 194	1 (≈ 2.99 µM)	–
isolate (source animal id): 195	4 (≈ 12 µM)	≤ 0.12
isolate (source animal id): 196	–	≤ 0.12
isolate (source animal id): 197	0.5 (≈ 1.5 µM)	≤ 0.12
isolate (source animal id): 198	–	0.25 (≈ 0.748 µM)
isolate (source animal id): 199	–	≤ 0.12
isolate (source animal id): 200	–	≤ 0.12
isolate (source animal id): 201	–	≤ 0.12
isolate (source animal id): 203	–	≤ 0.12
isolate (source animal id): 204	–	≤ 0.12
isolate (source animal id): 205	–	0.25 (≈ 0.748 µM)
isolate (source animal id): 206	–	≤ 0.12
isolate (source animal id): 207	–	≤ 0.12
isolate (source animal id): 208	–	≤ 0.12
isolate (source animal id): 209	–	≤ 0.12
isolate (source animal id): 210	–	0.25 (≈ 0.748 µM)
isolate (source animal id): 211	4 (≈ 12 µM)	–
isolate (source animal id): 213	–	≤ 0.12
isolate (source animal id): 214	2 (≈ 5.98 µM)	–
isolate (source animal id): 216	–	≤ 0.12
isolate (source animal id): 222	1 (≈ 2.99 µM)	–
isolate (source animal id): 223	1 (≈ 2.99 µM)	0.25 (≈ 0.748 µM)
isolate (source animal id): 227	–	≤ 0.12
isolate (source animal id): 228	2 (≈ 5.98 µM)	–
isolate (source animal id): 229	–	≤ 0.12
isolate (source animal id): 230	8 (≈ 23.9 µM)	–
isolate (source animal id): 233	–	≤ 0.12
isolate (source animal id): 234	–	≤ 0.12
isolate (source animal id): 235	2 (≈ 5.98 µM)	–
isolate (source animal id): 236	2 (≈ 5.98 µM)	–
isolate (source animal id): 237	–	≤ 0.12
isolate (source animal id): 239	1 (≈ 2.99 µM)	–
isolate (source animal id): 241	4 (≈ 12 µM)	≤ 0.12
isolate (source animal id): 244	1 (≈ 2.99 µM)	–
isolate (source animal id): 245	–	≤ 0.12
isolate (source animal id): 246	1 (≈ 2.99 µM)	–
isolate (source animal id): 247	8 (≈ 23.9 µM)	≤ 0.12
isolate (source animal id): 250	1 (≈ 2.99 µM)	≤ 0.12
isolate (source animal id): 252	2 (≈ 5.98 µM)	–
isolate (source animal id): 254	–	0.25 (≈ 0.748 µM)
isolate (source animal id): 255	–	≤ 0.12
isolate (source animal id): 258	–	≤ 0.12
isolate (source animal id): 261	–	≤ 0.12
isolate (source animal id): 262	–	≤ 0.12
isolate (source animal id): 268	≤ 0.12	–
isolate (source animal id): 269	–	≤ 0.12
isolate (source animal id): 270	–	≤ 0.12
isolate (source animal id): 274	–	≤ 0.12
isolate (source animal id): 275	–	0.25 (≈ 0.748 µM)
isolate (source animal id): 276	–	0.25 (≈ 0.748 µM)
isolate (source animal id): 277	–	≤ 0.12
isolate (source animal id): 278	–	≤ 0.12
isolate (source animal id): 279	–	0.25 (≈ 0.748 µM)
isolate (source animal id): 280	–	0.25 (≈ 0.748 µM)
isolate (source animal id): 282	2 (≈ 5.98 µM)	–
isolate (source animal id): 284	–	0.25 (≈ 0.748 µM)
isolate (source animal id): 285	2 (≈ 5.98 µM)	0.25 (≈ 0.748 µM)
isolate (source animal id): 287	–	0.25 (≈ 0.748 µM)
isolate (source animal id): 289	0.5 (≈ 1.5 µM)	–
isolate (source animal id): 290	0.25 (≈ 0.748 µM)	0.25 (≈ 0.748 µM)
isolate (source animal id): 294	–	0.25 (≈ 0.748 µM)
isolate (source animal id): 295	–	0.25 (≈ 0.748 µM)
isolate (source animal id): 296	0.5 (≈ 1.5 µM)	≤ 0.12
isolate (source animal id): 298	≤ 0.12	–
isolate (source animal id): 301	≤ 0.12	–
isolate (source animal id): 307	–	0.25 (≈ 0.748 µM)
isolate (source animal id): 310	4 (≈ 12 µM)	0.25 (≈ 0.748 µM)
isolate (source animal id): 311	–	0.25 (≈ 0.748 µM)
isolate (source animal id): 312	–	≤ 0.12
isolate (source animal id): 313	–	0.25 (≈ 0.748 µM)
isolate (source animal id): 315	–	0.25 (≈ 0.748 µM)
isolate (source animal id): 316	–	0.25 (≈ 0.748 µM)
isolate (source animal id): 320	0.5 (≈ 1.5 µM)	–
isolate (source animal id): 331	≤ 0.12	–
isolate (source animal id): 333	0.25 (≈ 0.748 µM)	–
isolate (source animal id): 341	2 (≈ 5.98 µM)	–
